Measured values reported in paper PMC6495176, “Steroidal antibiotics are antimetabolites of Acanthamoeba steroidogenesis with phylogenetic implications” (Journal of Lipid Research, 2019).

Assays:
[1] = target: T1, 24-AcSMT (Acanthamoeba castellanii, UniProt L8GNG7); test: steady-state inhibition of cycloartenol methylation by recombinant enzyme; also turned over to ERGT (GC-MS); format: biochemical
T1 construct: gene ACA1_193300; recombinant 24-AcSMT (XP_004336540) expressed in E. coli, lysate preparation

[2] = target: T2, 28-AcSMT (Acanthamoeba castellanii, UniProt L8GKC5); test: steady-state inhibition of […]([…])-methylene lophenol methylation by recombinant enzyme, GC-MS; partition ratio and substrate protection; format: biochemical
T2 construct: gene ACA1_237870; recombinant 28-AcSMT (XP_004335307) expressed in E. coli, lysate preparation

[3] = target: T3, 28-AcSMT (Acanthamoeba castellanii, UniProt L8GKC5); test: MALDI-TOF mass shift and retention of 3H-label after Ni-NTA purification; GC-MS of diol products; format: binding
T3 construct: gene ACA1_237870
T3 sequence (L8GKC5 1-346): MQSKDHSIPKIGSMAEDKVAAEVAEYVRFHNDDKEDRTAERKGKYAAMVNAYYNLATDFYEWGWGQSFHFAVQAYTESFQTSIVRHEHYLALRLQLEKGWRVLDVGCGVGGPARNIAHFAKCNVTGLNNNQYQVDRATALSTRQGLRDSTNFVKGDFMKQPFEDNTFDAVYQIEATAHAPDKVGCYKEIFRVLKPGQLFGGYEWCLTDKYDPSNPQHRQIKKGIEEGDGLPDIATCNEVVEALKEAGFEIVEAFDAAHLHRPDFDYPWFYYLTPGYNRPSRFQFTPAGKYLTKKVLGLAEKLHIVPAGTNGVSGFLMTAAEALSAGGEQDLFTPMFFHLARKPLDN

[4] = target: T1, 24-AcSMT; test: native substrate in steady-state SMT assay (Km); format: biochemical; conditions: cited from earlier work
[5] = substrate: C=C(CC[C@@H](C)[C@H]1CC[C@H]2C3=CC[C@H]4[C@H](C)[C@@H](O)CC[C@]4(C)[C@H]3CC[C@]12C)C(C)C; test: cells, lysate or membranes; format: biochemical, Acanthamoeba castellanii; conditions: SAM active site

T1 sequence (L8GNG7 entry or part of it): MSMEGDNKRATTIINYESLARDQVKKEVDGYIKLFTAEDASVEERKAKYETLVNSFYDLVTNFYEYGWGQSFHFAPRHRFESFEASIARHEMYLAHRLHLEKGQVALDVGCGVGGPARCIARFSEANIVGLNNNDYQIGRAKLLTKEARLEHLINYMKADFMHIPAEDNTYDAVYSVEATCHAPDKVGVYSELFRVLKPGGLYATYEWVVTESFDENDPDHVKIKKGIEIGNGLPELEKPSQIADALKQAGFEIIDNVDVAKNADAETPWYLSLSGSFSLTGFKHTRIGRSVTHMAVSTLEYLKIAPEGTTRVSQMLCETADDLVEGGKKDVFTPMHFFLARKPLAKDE

CC(C)=C/C=C/[C@@H](C)[C@H]1CC[C@H]2C3=CC=C4C[C@@H](O)CC[C@]4(C)[C@H]3CC[C@]12C [CHT]
Ki [1]: 18 µM
Ki [2]: 8 µM

C=C(/C=C/[C@@H](C)[C@H]1CC[C@H]2C3=CC=C4C[C@@H](O)CC[C@]4(C)[C@H]3CC[C@]12C)C(C)C [compound 15, ergosta-5,7,22,24(28)-tetraen-3-ol]
MALDI-TOF mass shift and retention of 3H-label after Ni-NTA purification; GC-MS [3]: irreversible nature of the ERGT-28-AcSMT complex was further confirmed by MALDI-TOF analysis showing an increase in molecular mass

CC(C)=CCC[C@@H](C)[C@H]1CC[C@@]2(C)[C@@H]3CC[C@H]4C(C)(C)[C@@H](O)CC[C@@]45C[C@@]35CC[C@]12C [cycloartenol]
Km [4]: 48 µM

B1: 28-AcSMT (Acanthamoeba castellanii str. Neff) (protein)
chain: T3 sequence (L8GKC5 1-346)
notes: recombinant 28-AcSMT (XP_004335307) expressed in E. coli, lysate preparation
Km [5]: 44 µM
